Assay results published in US10434112B2, “Use of agonists of formyl peptide receptor 2 for treating dermatological diseases” (Allergan, Inc., priority 2013, dated 2019).

Molecular target: human FPR2 receptor (Homo sapiens (Human), UniProt P25090)
Assay: FLIPR Ca+2 response in HEK-Gα16 cells stably expressing the human FPR2 receptor
Format: cell-based
Parameters: FPR2 (% eff): unit not given here
Settings: Table 4; for FPR2 (% eff): value in brackets, given mostly as fraction
Method: FLIPR: HEK-Gα16 cells stably expressing the human FPR2 receptor was utilized. Cells were plated into 384-well poly-D-lysine coated plates at a density of 18,000 cells per well one day prior to use. The growth media was DMEM medium supplemented with 10% fetal bovine serum (FBS), 1% antibiotic-antimycotic, 50 μg/ml hygromycin, and 400 μg/ml geneticin. On the day of the experiment, the cells were washed twice with Hank's Balanced Salt Solution supplemented with 20 mM HEPES (HBSS/hepes buffer). The cells were then dye loaded with 2 μM Fluo-4 diluted in the HBSS/Hepes buffer and incubated at 37° C. for 40 minutes. Extracellular dye was removed by washing the cell plates four times prior to placing the plates in the FLIPR (Fluorometric Imaging Plate Reader, Molecular Devices). Ligands were diluted in HBSS/Hepes buffer and prepared in 384-well microplates. Data for Ca^+2 responses were obtained in relative fluorescence units.

human FPR2 receptor, sequence (P25090 whole entry): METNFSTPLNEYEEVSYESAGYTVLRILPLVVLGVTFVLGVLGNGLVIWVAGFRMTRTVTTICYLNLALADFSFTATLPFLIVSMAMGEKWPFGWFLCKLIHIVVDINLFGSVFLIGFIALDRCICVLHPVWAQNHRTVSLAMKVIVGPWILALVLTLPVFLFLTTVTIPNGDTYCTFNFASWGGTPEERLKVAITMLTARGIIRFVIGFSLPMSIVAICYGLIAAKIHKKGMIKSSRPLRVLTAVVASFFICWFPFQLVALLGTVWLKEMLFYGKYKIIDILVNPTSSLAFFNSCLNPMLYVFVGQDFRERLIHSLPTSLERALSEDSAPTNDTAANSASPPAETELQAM

| Structure (SMILES) | FPR2 (% eff) | EC50 [nM] |
| --- | --- | --- |
| CSc1ccc(NC(=O)Nc2ccc3c(c2)C(=O)N(CCCN)C(C)C3)cc1 (centres unmarked) [Compound 42, 1-[2-(3-aminopropyl)-3-methyl-1-oxo-1,2,3,4-tetrahydroisoquinolin-7-yl]-3-[4-(methylsulfanyl)phenyl]urea] | 1.00 |  |
| N#Cc1ccc(C2Cc3ccc(NC(=O)Nc4ccc(I)cc4)cc3C(=O)N2CCCN)cc1 (centres unmarked) [Compound 43, 1-[2-(3-aminopropyl)-3-(4-cyanophenyl)-1-oxo-1,2,3,4-tetrahydroisoquinolin-7-yl]-3-(4-iodophenyl)urea] | 0.94 |  |
| CNC(=O)C1C(C(=O)Nc2ccc(Br)cc2)C2CCC1C21CC1 (centres unmarked) [Compound 46, N-(4-bromophenyl)-N′-methylspiro[bicyclo[2.2.1]heptane-7,1′-cyclopropane]-2,3-dicarboxamide] | 1.0 |  |
| CCNC(=O)C1C(C(=O)Nc2ccc(Br)cc2)C2CCC1C21CC1 (centres unmarked) [Compound 47, N-(4-bromophenyl)-N′-ethylspiro[bicyclo[2.2.1]heptane-7,1′-cyclopropane]-2,3-dicarboxamide] | 1.0 |  |
| CC(C)NC(=O)C1C(C(=O)Nc2ccc(Br)cc2)C2CCC1C21CC1 (centres unmarked) [Compound 48, N-(4-bromophenyl)-N′-(propan-2-yl)spiro[bicyclo[2.2.1]heptane-7,1′-cyclopropane]-2,3-dicarboxamide] | 1.0 |  |
| CCC1(CC)NC(=O)N(NC(=O)Nc2ccc(Br)cc2)C1=O [Compound 49, 1-(4-bromophenyl)-3-(4,4-diethyl-2,5-dioxoimidazolidin-1-yl)urea] | 0.98 |  |
| CCC1(CC)NC(=O)N(NC(=O)Nc2ccc(Br)cc2F)C1=O [Compound 50, 1-(4-bromo-2-fluorophenyl)-3-(4,4-diethyl-2,5-dioxoimidazolidin-1-yl)urea] | 1.0 |  |
| O=C(Nc1ccc(Br)cc1)NN1C(=O)NC2(CCCCC2)C1=O [Compound 52, 1-(4-bromophenyl)-3-(2,4-dioxo-1,3-diazaspiro[4.5]dec-3-yl)urea] | 1.0 |  |
| O=C(O)CNC(=O)[C@H](Cc1ccccc1)NC(=O)Nc1ccc(Br)cc1 [Compound 55, {[(2S)-2-{[(4-bromophenyl)carbamoyl]amino}-3-phenylpropanoyl]amino} acetic acid] | 0.99 |  |
| O=C(O)CCNC(=O)[C@H](Cc1ccccc1)NC(=O)Nc1ccc(Br)cc1 [Compound 56, 3-{[(2S)-2-{[(4-bromophenyl)carbamoyl]amino}-3-phenylpropanoyl]amino} propanoic acid] | 0.98 |  |
| O=C(Nc1ccc(Br)cc1)N[C@@H](Cc1ccccc1)C(=O)NCCO [Compound 58, (2S)-2-{[(4-bromophenyl)carbamoyl]amino}-N-(2-hydroxyethyl)-3-phenylpropanamide] | 0.86 |  |
| CC[C@H](C)[C@H](NC(=O)Nc1ccc(Br)cc1F)C(=O)NCC(=O)O [Compound 59, {[(2S,3S)-2-{[(4-bromo-2-fluorophenyl)carbamoyl]amino}-3-methylpentanoyl]amino} acetic acid] | 0.95 |  |
| CC[C@H](C)[C@H](NC(=O)Nc1ccc(Br)cc1)C(=O)NCC(N)=O [Compound 60, (2S,3S)-N-(2-amino-2-oxoethyl)-2-{[(4-bromophenyl)carbamoyl]amino}-3-methylpentanamide] | 0.91 |  |
| CCC1(C(C)C)NC(=O)N(NC(=O)Nc2ccc(Br)cc2F)C1=O (centres unmarked) [Compound 61, 1-(4-bromo-2-fluorophenyl)-3-[4-ethyl-2,5-dioxo-4-(propan-2-yl)imidazolidin-1-yl]urea] | 0.97 |  |
| CC[C@H](C)[C@H](NC(=O)Nc1ccc(Br)cc1F)C(=O)NCC(N)=O [Compound 62, (2S,3S)-N-(2-amino-2-oxoethyl)-2-{[(4-bromo-2-fluorophenyl)carbamoyl]amino}-3-methylpentanamide] | 100 | 10.3 |
| CC[C@H](C)[C@H](NC(=O)Nc1ccc(Br)cc1)C(=O)NCC(C)=O [Compound 63, (2S,3S)-2-{[(4-bromophenyl)carbamoyl]amino}-3-methyl-N-(2-oxopropyl)pentanamide] | 0.97 |  |
